Experimental data: US12568963B2, “Compounds and compositions for nematode treatment” (IOWA STATE UNIVERSITY RESEARCH FOUNDATION, INC., priority 2020, dated 2026)
“And” between values parts separate entries of the source, which are not always exact repeats. Identical values can stand only once. Like-named read-outs stand apart in the source and are kept apart here. Marks after values point to notes of the source that are not given here.

How the values were obtained:
SCN = conditions: for SCN Population Densities 34 DAP / SCN Population Densities 64 DAP / SCN Population Densities harvest / Biomass at harvest, total / Biomass at harvest, seed: susceptible soybean; for SCN Population Densities 34 DAP: 34 days after planting; for SCN Population Densities 64 DAP: 64 days after planting; for Biomass at harvest, total: dry weight of all plants per microplot; for Biomass at harvest, seed: seed weight per microplot
Text: Microplots were constructed by inserting 1-m-diameter by 0.25-m-tall circles of plastic drainage pipe into the soil in a field on a university-owned research farm located 10 km (6 miles) due west of Ames, IA. The field was not infested with SCN prior to being infested for the experiment.
The soil in the top 20 cm of each microplot was loosened, turned over, and artificially infested with approximately 570,000 SCN eggs contained within cysts in 1 liter of soil from greenhouse cultures. The SCN inoculum was applied in a band across the middle of the microplot (FIG. 5A), then 1.65 L of treatment solution were applied over the infested soil. […] Two different control treatments consisted of microplots receiving 1.65 L of autoclaved, deionized water and microplots receiving 1.65 L of the solvent used to dilute the compounds. The SCN-infested soil inoculum and applied liquid treatment were rototilled into the soil in each microplot, then 40 seeds of the SCN-susceptible variety “Williams 82” were planted in a single, central row within each microplot (FIG. 5B). Similarly, seeds of the SCN-resistant variety “Jack” were planted in microplots infested with SCN inoculum and treated with water as a third control treatment. There were four replications of each of the six treatments arranged in a randomized complete block design. Microplots were spaced 1 m apart in rows separated by 3 m to avoid cross contamination among microplots (FIG. 5F). Plants were grown for the entire 2020 growing season (FIGS. 5C through 5H).
The total number of plants growing in each microplot were counted (i.e., a “stand count”) 34 days after planting. A total of five soil cores, 2 cm in diameter and 15 to 20 cm deep, were collected from the root zone on either side of the row of soybean plants in each microplot 34 days after planting, 64 days after planting, and when the plants were removed from the microplots to determine the SCN population densities. SCN requires approximately 30 days to complete a single generation. […] SCN cysts (dead females full of eggs) were extracted from the soil samples using a wet sieving method, and eggs were released from the recovered cysts by crushing cysts with a motorized rubber stopper. Recovered eggs were stained with acid fuchsin and counted under a microscope to determine their number per 100 cm^3 of soil.
The stems of soybean plants in each microplot were cut at the soil line, and all plants from each microplot were placed in large paper bags and stored in an unheated shed until they were further processed. The dry weight of all plants in each microplot was determined (total plant biomass at harvest), and then all plants from each microplot were fed through a plot combine to collect and weigh the seeds (seed biomass).

SCN eggs = assay: SCN hatching assay (continuous and short-term exposure); conditions: in vivo
Procedure: Two similar assays ran synchronously. For both, approximately 300 eggs were pipetted onto 20 mm-diameter plastic microsieves and placed in a six-well plate and incubated at 25° C. in 3 mL of treatment (FIG. 1A). In a continuous exposure assay, eggs (FIG. 1B) were incubated in treatments for 15 days, and in a short-term exposure assay, eggs were incubated in treatments for one day, rinsed, then incubated in deionized water for 14 days. The number of hatched second-stage juveniles (FIG. 1B) was determined for both assays after 3, 6, 9, 12, and 15 days when the microsieves containing the eggs were moved to an empty well and fresh treatment solution was added. […] Compounds were tested over twelve different experimental runs in total, with some tested three times, others twice, and some once.
The number of hatched and unhatched juveniles of SCN in each treatment were subjected to an analysis with a quasibinomial generalized linear model to estimate the percent hatching for each treatment in each individual experimental run. Then, a test of marginal means was done to determine the estimated percent hatching in each treatment over all runs. […] Analysis were performed on four different treatment groups: continuous 100 ppm, short term 100 ppm, continuous 10 ppm, and short term 10 ppm.
Because of the complexity of the experimental design and the large variation in hatch rates between different testing blocks, as well as the long duration over which testing has occurred, the statistical analysis is not straight-forward. First, within each block bi, the mean μi hatch rate (in percent) in the solvent control is calculated (in blocks with both short-term and continuous exposure, these two testing methods are analyzed independently). For each treatment hatch rate xj in block bi, a “hatching score” hij is the calculated as
The arcsine transformation is used to account for the fact that calculating the ratio of hatching is subject to non-linear effects. A general linear model is then used to account for additional block effects, and Dunnett's adjustment is used as the multiple comparison procedure to control the familywise error rate, as all treatments are compared to the solvent control. […] These controls were not used in the calculation of significance other than as controls common to each block in the unbalanced incomplete block design experiment.
The estimate column contains an estimate of the difference in hatch rate modulation between the solvent control and the treatment. This is estimated as a percentage hatch rate of the control. For reliability of the magnitude of the effect, more than one block is needed. Due to the high variation in solvent control hatch rates between blocks, some percentage modulations may fall outside the expected range (e.g., below −100%).
Due to the arctangent/tangent conversions, the standard errors of the mean (column SE) are very rough estimates of the standard error. However, the p value column contains the actual p-values.

[1] = Solubility in the solvent system / water; format: physicochemical
Procedure: Several tested compounds were obtained commercially while others were synthesized from simple starting materials (see Example 1, supra). Compounds were dissolved in a solvent containing 0.08% ethanol, 0.08% TRITON™ X-100, and nano-purified water and were tested at 10 and 100 ppm.
Almost all compounds were tested at 100 ppm, provided they were sufficiently soluble in the solvent system at this concentration.

M. incognita = assay: RKN quick sand assay (cucumber root galling); format: in vivo; conditions: 15 days after infestation with 2,000 M. incognita eggs; abamectin 100 ppm drench; solvent control 24%
Procedure: Deionized water, 100 ppm abamectin, and solvent were used as controls. […] To date, compounds were tested in three different experimental runs, with some compounds being tested twice and others once. A beta regression model was used to estimate the percent of galling for each treatment in each run. As with the hatching data analyses, a test of marginal means was performed to determine the estimated percent of galling in each treatment over all runs.

## Cc1ccc(C=C[N+](=O)[O-])cc1 [4-M-BNS, 4-methyl beta-nitrostyrene]
SCN; 100 ppm solution
  SCN Population Densities 34 DAP: 5,800 # eggs per 100 cm^3 soil
  SCN Population Densities 64 DAP: 7,400 # eggs per 100 cm^3 soil
  Biomass at harvest, total: 654 g
  Biomass at harvest, seed: 322 g
SCN; 100 ppm solution, at harvest
  SCN Population Densities harvest: 9,800 # eggs per 100 cm^3 soil
SCN; in vivo
  seed weights (analogous to grain yield) versus susceptible/water treatment: significantly greater
  soil SCN egg population densities 64 days after planting versus susceptible/water treatment: significantly lower

## COc1cc(/C=C/C=O)ccc1O [4H3MC]
SCN eggs
  estimate (difference in hatch rate modulation between solvent control and treatment, as percentage hatch rate of the control): −55.3%

## C(=C\C1SCCS1)/c1ccccc1 [JSK3011]
[1]; not sufficiently soluble at 100 ppm in solvent system, only tested at 10 ppm
  solubility in water: low solubility

## O=C(/C=C/c1ccc(Cl)cc1)C1CC1 [JSK3087, 4-Chlorostyryl Cyclopropyl Ketone]
SCN; 100 ppm solution, LSD alpha = 0.10
  soil SCN egg population densities 64 days after planting versus susceptible/water treatment: significantly lower
SCN; 100 ppm solution
  SCN Population Densities 34 DAP: 7,275 # eggs per 100 cm^3 soil
  SCN Population Densities 64 DAP: 4,700 # eggs per 100 cm^3 soil
  Biomass at harvest, total: 668 g
  Biomass at harvest, seed: 327 g
SCN; 100 ppm solution, at harvest
  SCN Population Densities harvest: 6,400 # eggs per 100 cm^3 soil
SCN; at harvest
  seed weights (analogous to grain yield) versus susceptible/water treatment: significantly greater

## O=CC(Br)=Cc1ccccc1 [a-bromocinnamaldehyde]
[1]
  solubility in water: low solubility

## N#CC=Cc1ccccc1 [cinnamonitrile]
SCN eggs
  estimate (difference in hatch rate modulation between solvent control and treatment, as percentage hatch rate of the control): −53.8%

## CC(=O)C=Cc1ccccc1 [methyl styryl ketone]
SCN eggs
  estimate (difference in hatch rate modulation between solvent control and treatment, as percentage hatch rate of the control): −75.4% and −85%

## O=S(=O)([O-])[O-].[Zn+2] [zinc sulfate, reference compound]
SCN eggs
  estimate (difference in hatch rate modulation between solvent control and treatment, as percentage hatch rate of the control): 54.7% and 54.9%

## abamectin
M. incognita
  percentage galling of cucumber roots: 0%
